Read-outs that look alike come from different tables or passages of the source.
Experiments:
Assay type in all cases: cell-based
Mia-Pa-Ca-2 = experiment: Cell viability (CellTiter-Blue, 72 h), Mia-Pa-Ca-2 pancreatic cancer cells; conditions: Homo sapiens
Method: (§1) The following cell lines were tested in this example: Lung Cancer (A549, NCI-H460); Pancreatic cancer (PANC1, Mia-Pa-Ca-2); Melanoma (WM115, A375); Ovarian cancer (OVCAR3, SKOV3); Gastric cancer (MKN45, HGC-27); Renal cancer (ACHN) and Bladder Cancer (RT112).
(§2) Each tumour cell line was maintained in vitro in RPMI 1640+10% heat inactivated FBS and 2 mM L-glutamine (growth media) at 37° C. in 5% CO2 and humidified conditions. The cells were harvested, washed, re-suspended into growth medium and counted. The cells were re-suspended into assay media (RPMI 1640+5% heat inactivated FBS+ and 2 mM L-glutamine) at 4×10^4 cells/ml (dependent upon cell type) and plated into the middle 240 wells of 384 well tissue culture plates (Corning CellBind, black-wall plates) 25 μl/well aliquots; 50 μl of growth media was aliquoted into the outer wells. There were 3 plates for each cell line.
(§3) The plates were incubated overnight at 37° C., in 5% humidified CO2.
(§4) The phytocannabinoid test compounds were prepared in 100% DMSO vehicle at a stock concentration of 20 and 40 mM.
(§5) Starting with the 20 mM stock in DMSO, this was serially diluted (2 fold) in DMSO in a 96-well plate, to 20 (no dilution), 10, 5, 2.5, 1.25, 0.625, 0.315, 0.157 and […]. Following this, 10 ul of each compound dilution was diluted into 990 ul of 1% (v/v) FBS media in a deep well block making the final concentrations of 200, 100, 50, 25, 12.5, 6.25, 3.125, 1.56 and 0.79 μM (2× final assay concentrations and 1% DMSO).
(§6) An equal volume of each cannabinoid in the combination (stock concentration 40 mM) was mixed together to make a stock of 20 mM of each cannabinoid in DMSO. This was serially diluted (2 fold) in DMSO in a 96-well plate, to 20 (no dilution), 10, 5, 2.5, 1.25, 0.625, 0.315, 0.157 and […]. Following this, 10 ul of each combination dilution was diluted into 990 ul of 1% (v/v) FBS media in a deep well block making the final concentrations of 200, 100, 50, 25, 12.5, 6.25, 3.125, 1.56 and 0.79 μM (2× final assay concentrations and 1% DMSO).
(§7) Gemcitabine SOC was prepared in 100% DMSO to give a stock concentration of 20 mM. This was then serially diluted (3 fold) in DMSO in a 96-well plate, to 20 (no dilution), 6.6, 2.2, 0.741, 0.247, 0.082, 0.027, 0.009 and 0.003 mM. Following this, 10 ul of each dilution was further diluted into 990 ul of 1% (v/v) FBS media making the final concentrations of 200 (no dilution), 66.66, 22.22, 7.41, 2.47, 0.82, 0.27, 0.09, 0.03 μM (2× final assay concentrations and 1% DMSO).
(§8) The plates were incubated for 72 h at 37° C. in 5% humidified CO2. To develop the plates, at 72 h, 10 μl of CellTiter-Blue™ reagent was added to each test/blank well.
(§9) The plates were incubated at 37° C., 5% humidified CO2. Fluorescence was measured using a Flex II Station plate reader (570 nm excitation wavelength, 600 nm emission wavelength, 590 nm cut-off) after 3 h.
(§10) The phytocannabinoid compounds CBD, CBGA, CBG, CBDA, THCV and THC were tested on a panel of lung (A549, NCI-H460), pancreatic (PANC1, Mia-Pa-Ca-2), melanoma (WM115, A375), ovarian (OVCAR3, SKOV3), gastric (MKN45, HGC-27), renal (ACHN) and bladder (RT112) cancer cell lines according to the protocol for 72 h in media containing 1% FBS.
(§11) The IC50 values for each phytocannabinoid and combination of CBD with the other phytocannabinoids was calculated for each cell line. The raw data values expressed in relative fluorescent units were normalised to the vehicle for each individual plate and any reduction in fluorescence indicated a decrease in viability.
(§12) This calculation was as described in Example 1 above.

A375 = experiment: Cell viability (CellTiter-Blue, 72 h), A375 melanoma cells; conditions: Homo sapiens, A-375, A375, 1% FBS
Method: as §1, §2, §3, §4, §5, §6
(§13) Cisplatin (stock of 1 mg/ml=3.33 mM in water) was diluted in 1% FBS media to give a stock concentration of 1 mM. This was then diluted in 1% FBS media from the stock solution to 200 μM, then serially diluted (3-fold) in 1% FBS media to 200 (no dilution), 66.66, 22.22, 7.41, 2.47, 0.82, 0.27, 0.09, 0.03 μM (2× final assay concentrations; no DMSO).
as §8, §9, §10, §11, §12

SKOV3 = experiment: Cell viability (CellTiter-Blue, 72 h), SKOV3 ovarian cancer cells; conditions: Homo sapiens, SK-OV-3
Method: as §1, §2, §3, §4, §5, §6, §13, §8, §9, §10, §11, §12

ACHN = experiment: Cell viability (CellTiter-Blue, 72 h), ACHN renal cancer cells; conditions: Homo sapiens
Method: as §1, §2, §3, §4, §5, §6
(§14) Taxotere SOC was prepared in 100% DMSO to give a stock concentration of 10 mM. This was diluted in DMSO from the stock solution to 200 μM, then serially diluted (3-fold) in DMSO to 200 (no dilution), 66.66, 22.22, 7.41, 2.47, 0.82, 0.27, 0.09, 0.03 μM. 10 ul of each of the taxotere dilutions was diluted in 990 ul of 1% (v/v) FBS media making the final concentrations of 2, 0.67, 0.22, 0.074, 0.0247, 0.0082, 0.0027 0.0009, 0.0003 μM (2× final assay concentrations and 1% DMSO).
as §8, §9, §10, §11, §12

WM115 = experiment: Cell viability (CellTiter-Blue, 72 h), WM115 melanoma cells; conditions: Homo sapiens, WM-115, WM115, 1% FBS
Method: as §1, §2, §3, §4, §5, §6, §13, §8, §9, §10, §11, §12

RT112 = experiment: Cell viability (CellTiter-Blue, 72 h), RT112 bladder cancer cells; conditions: Homo sapiens, RT-112
Method: as §1, §2, §3, §4, §5, §6, §13, §8, §9, §10, §11, §12

PANC-1 = experiment: Cell viability (CellTiter-Blue, 72 h), PANC-1 pancreatic cancer cells; conditions: Homo sapiens, PANC-1, 1% FBS
Method: as §1, §2, §3, §4, §5, §6, §7, §8, §9, §10, §11, §12

NCI-H460 = experiment: Cell viability (CellTiter-Blue, 72 h), NCI-H460 lung cancer cells; conditions: Homo sapiens
Method: as §1, §2, §3, §4, §5, §6, §14, §8, §9, §10, §11, §12

[1] = MIA PaCa-2, 72 h, read-out: Cell line IC50 value
[2] = MIA PaCa-2, read-out: Dm (median effect dose)
[3] = 72 h, read-out: Cell line IC50 value
[4] = read-out: Dm (median effect dose)
[5] = SKOV3, 1% FBS, 72 h, read-out: Cell line IC50 value
[6] = SKOV3 cells, 1% FBS, read-out: Dm (potency, median effect)
[7] = read-out: Dm (potency, median effect)
[8] = RT112, 1% FBS, 72 h, read-out: Cell line IC50 value
[9] = RT112 cells, 1% FBS, read-out: Dm (potency, median effect)
[10] = NCI-H460, 72 h, read-out: Cell line IC50 value
[11] = NCI-H460, read-out: Dm (median effect dose)

| SMILES | IC50 (Mia-Pa-Ca-2; [1]) | IC50 (Mia-Pa-Ca-2; [2]) | IC50 (A375; [3]) | IC50 (A375; [4]) | IC50 (SKOV3; [5]) | IC50 (SKOV3; [6]) | IC50 (ACHN; [3]) | IC50 (ACHN; [7]) | IC50 (WM115; [3]) | IC50 (WM115; [4]) | IC50 (RT112; [8]) | IC50 (RT112; [9]) | IC50 (PANC-1; [3]) | IC50 (PANC-1; [4]) | IC50 (NCI-H460; [10]) | IC50 (NCI-H460; [11]) |
| --- | --- | --- | --- | --- | --- | --- | --- | --- | --- | --- | --- | --- | --- | --- | --- | --- |
| C=C(C)[C@@H]1CCC(C)=C[C@H]1c1c(O)cc(CCCCC)cc1O [CBD, Cannabidiol] | 2.6 µM | 2 µM | 2.9 µM | 2.66 µM | 3.1 µM | 3.17 µM | 3.3 µM | 3.11 µM | 2.4 µM | 2.77 µM | 2 µM | 1.79 µM | 3 µM | 2.92 µM | 2.5 µM | 2.55 µM |
| C=C(C)[C@@H]1CCC(C)=C[C@H]1c1c(O)cc(CCCCC)c(C(=O)O)c1O [CBDA, Cannabidiolic acid] | 7.9 µM | 7.09 µM | 10.2 µM | 9.78 µM | 1.3 µM | 10.6 µM | 10.7 µM | 8.44 µM | 2.1 µM | 14.7 µM | 8.2 µM | 6.36 µM | 13.1 µM | 12.6 µM | 7.3 µM | 6.6 µM |
| CCCCCc1cc(O)c(C/C=C(\C)CCC=C(C)C)c(O)c1 [CBG, Cannabigerol] | 2.2 µM | 2.06 µM | 2.1 µM | 1.89 µM | 5.5 µM | 4.75 µM | 3 µM | 2.96 µM | 3.1 µM | 3.1 µM | 2.5 µM | 2.14 µM | 3.1 µM | 2.88 µM | 4 µM | 3.96 µM |
| CCCCCc1cc(O)c(C/C=C(\C)CCC=C(C)C)c(O)c1C(=O)O [CBGA, Cannabigerolic acid] | 8.9 µM | 8.67 µM | 7.3 µM | 6.66 µM | 7.9 µM | 8.64 µM | 11.6 µM | 12 µM | 1.5 µM | 12.9 µM | 9.8 µM | 9.72 µM | 8.5 µM | 8.82 µM | 6.2 µM | 4.03 µM |
| CCCCCc1cc(O)c2c(c1)OC(C)(C)[C@@H]1CCC(C)=C[C@@H]21 [THC, Tetrahydrocannabinol, reference compound] | 2.9 µM | 2.64 µM | 2.7 µM | 2.47 µM | 5.3 µM | 4.56 µM | 3.6 µM | 4.4 µM | 2.9 µM | 3.17 µM | 3.6 µM | 3.09 µM | 3 µM | 3.15 µM | 3.8 µM | 3.28 µM |
| CCCc1cc(O)c2c(c1)OC(C)(C)[C@@H]1CCC(C)=C[C@@H]21 [THCV, Tetrahydrocannabivarin] | 5.2 µM | 4.79 µM | 5 µM | 5.54 µM | 6.5 µM | 6.58 µM | 6.8 µM | 6.76 µM | 6.5 µM | 6.43 µM | 4.7 µM | 4.75 µM | 6.5 µM | 6.46 µM | 4.6 µM | 4.53 µM |
| CC(=O)O[C@@]12CO[C@@H]1C[C@H](O)[C@@]1(C)C(=O)[C@H](O)C3=C(C)[C@@H](OC(=O)[C@H](O)[C@@H](NC(=O)OC(C)(C)C)c4ccccc4)C[C@@](O)([C@@H](OC(=O)c4ccccc4)[C@H]21)C3(C)C [Taxotere, Docetaxel, reference compound] | – | – | – | – | – | – | 0.0018 µM | – | – | – | – | – | – | – | 0.0011 µM | – |

Reference: US9962341B2, “Active pharmaceutical ingredient (API) comprising cannabinoids for use in the treatment of cancer” (GW Pharma Limited, priority 2014, dated 2018)
